# Measured values published in patent US20260201008A1, “SECRETIN-DERIVED GLP1R SELECTIVE AGONISTS” (GUBRA A/S, priority 2023, published 2026).
# Read-outs that look alike come from different tables or passages of the source. Numbered stars: 1 amine (or outer) side, 2 acyl side, 3 side chain; on linkers, the order of the positions; unused ones are H or OH. Square brackets hold non-standard residues; d marks the D form. Side chains are listed from the residue outwards. Peptide text beside a SMILES is read from it. * marks the point of attachment. C20 diacid = O=C(O)CCCCCCCCCCCCCCCCCCC(=O)*; γGlu = O=C(O)[C@H](CCC(=O)[*:2])N[*:1]; AEEA = NCCOCCOCC(=O)O; Aib = CC(C)(N)C(=O)O
# Key:
# [1] = Fibril formation of crude library peptides (Thioflavin T); type: physicochemical; set-up: key: average ThT fluorescence emission at 480 nm (ex 450 nm), raw units; settings: Physical stability of peptides
# How it was run: (§1)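 Fibril formation is scored as average ThT fluorescence from duplicate samples monitored for 72 h at 40° C with shaking stress. Turbidity is the absorbance at 600 nm taken before heating. Peptide concentration was 267 μM at pH 4.0 or pH 7.0.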
# SCTR = SCTR (Homo sapiens, UniProt P47872); test: hSCTR potency, cAMP accumulation in CHO-K1 cells stably overexpressing hSCTR; type: cell-based; set-up: alternatively Euroscreen ES-712-AF; FAST-0161L; host or cells: CHO-K1
# Chain of SCTR (P47872 23-440): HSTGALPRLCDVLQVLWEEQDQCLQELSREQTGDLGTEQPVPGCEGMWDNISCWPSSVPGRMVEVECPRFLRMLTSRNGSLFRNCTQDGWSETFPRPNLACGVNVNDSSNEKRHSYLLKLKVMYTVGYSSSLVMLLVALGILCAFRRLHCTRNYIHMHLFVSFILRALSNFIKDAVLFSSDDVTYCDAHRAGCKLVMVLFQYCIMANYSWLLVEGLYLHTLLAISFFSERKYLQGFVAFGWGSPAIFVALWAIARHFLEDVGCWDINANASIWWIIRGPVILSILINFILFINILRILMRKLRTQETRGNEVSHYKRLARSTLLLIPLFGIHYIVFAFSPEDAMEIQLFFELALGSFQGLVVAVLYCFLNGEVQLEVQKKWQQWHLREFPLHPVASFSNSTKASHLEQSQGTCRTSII
# How it was run: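 CHO-K1/hSCTR cells; DPBS + 0.05% casein + 0.5 mM IBMX; 30 min RT stimulation; cAMP by TR-FRET read at 1 h. Crude peptides: 5-point 10-fold dilutions, n=1. Purified: 11-point 3-fold dilutions, n=2. EC50 via variable-slope fit.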
# [2] = Turbidity of crude library peptides (absorbance at 600 nm); type: physicochemical; settings: Physical stability of peptides
# How it was run: as §1
# GLP1R = GLP1R (Homo sapiens, UniProt P43220); test: hGLP1R potency, cAMP accumulation in CHO-K1 cells stably overexpressing hGLP1R; type: cell-based; set-up: host or cells: CHO-K1; settings: for Selectivity: SCTR EC50/GLP1R EC50 ratio; for SCTR EC50/GLP1R EC50 ratio: selectivity for hGLP1R over hSCTR, cAMP accumulation in CHO-K1 cells
# Chain of GLP1R (P43220 24-463): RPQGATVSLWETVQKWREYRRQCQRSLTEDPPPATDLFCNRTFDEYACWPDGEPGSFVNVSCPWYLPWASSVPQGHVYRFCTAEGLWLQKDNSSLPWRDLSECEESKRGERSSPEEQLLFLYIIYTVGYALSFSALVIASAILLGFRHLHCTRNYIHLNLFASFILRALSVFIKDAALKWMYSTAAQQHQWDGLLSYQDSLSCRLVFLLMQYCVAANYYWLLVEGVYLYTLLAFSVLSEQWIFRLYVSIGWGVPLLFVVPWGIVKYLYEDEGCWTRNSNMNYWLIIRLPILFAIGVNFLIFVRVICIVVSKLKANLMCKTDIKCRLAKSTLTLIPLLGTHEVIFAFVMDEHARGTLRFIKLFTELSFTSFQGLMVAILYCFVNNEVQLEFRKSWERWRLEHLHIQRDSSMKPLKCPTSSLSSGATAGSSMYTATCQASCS
# How it was run: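 TR-FRET cAMP read-out, one hour after reagent addition, following 30 min compound exposure at RT in DPBS/0.05% casein/0.5 mM IBMX. Crude peptides: 5 points, 10-fold steps, n=1. Purified peptides: 11 points, 3-fold steps, n=2. EC50 fitted with a variable-slope sigmoid.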
# [3] = cAMP accumulation, CHO-K1 cells overexpressing hSCTR, read-out: pEC50 hSCTR (converted)
# [4] = cAMP accumulation, CHO-K1 cells overexpressing hGLP1R, read-out: pEC50 hGLPR1 (converted)
# [5] = cAMP accumulation, CHO-K1 cells overexpressing hSCTR, read-out: hSCTR pEC50 (converted)
# [6] = cAMP accumulation, CHO-K1 cells overexpressing hGLP1R, read-out: hGLP1R pEC50 (converted)
SMILES,Fibril formation [1],EC50 (SCTR; [3]),Turbidity (pH 7) [2],Selectivity (GLP1R),EC50 (GLP1R; [4]),EC50 (SCTR; [5]),EC50 (GLP1R; [6]),SCTR EC50/GLP1R EC50 ratio (GLP1R),EC50 (SCTR),EC50 (GLP1R)
CC(C)C[C@H](NC(=O)[C@H](CCC(=O)O)NC(=O)[C@H](CCCCNC(=O)COCCOCCNC(=O)COCCOCCNC(=O)CC[C@H](NC(=O)CCCCCCCCCCCCCCCCCCC(=O)O)C(=O)O)NC(=O)[C@H](CC(C)C)NC(=O)[C@H](CCC(=O)O)NC(=O)[C@H](CO)NC(=O)[C@@H](NC(=O)[C@H](CC(=O)O)NC(=O)[C@H](CO)NC(=O)[C@@H](NC(=O)[C@H](Cc1ccccc1)NC(=O)[C@@H](NC(=O)CNC(=O)[C@H](CCC(=O)O)NC(=O)C(C)(C)NC(=O)[C@@H](N)Cc1c[nH]cn1)[C@@H](C)O)[C@@H](C)O)C(C)C)C(=O)N[C@@H](C)C(=O)N[C@@H](C)C(=O)N[C@@H](CO)C(=O)N[C@@H](CCC(N)=O)C(=O)N[C@@H](CCCNC(=N)N)C(=O)N[C@@H](Cc1ccccc1)C(=O)N[C@@H](CC(C)C)C(=O)N[C@@H](CCC(=O)O)C(=O)N[C@@H](Cc1c[nH]cn1)C(=O)N[C@@H](CC(C)C)C(=O)N[C@H](C(N)=O)C(C)C [compound 12] (H-H[Aib]EGTFTSDVSELK([AEEA-AEEA-γGlu-C20 diacid])ELAASQRFLEHLV-NH2),7904,631 nM,0.09,33473,0.02 nM,,,,,
CC(C)C[C@H](NC(=O)[C@H](Cc1ccccc1)NC(=O)[C@H](CCCNC(=N)N)NC(=O)[C@H](CCC(N)=O)NC(=O)[C@H](CC(C)C)NC(=O)C(C)(C)NC(=O)[C@H](C)NC(=O)[C@H](CCC(=O)O)NC(=O)[C@H](CCC(=O)O)NC(=O)[C@H](CCCCNC(=O)COCCOCCNC(=O)COCCOCCNC(=O)CC[C@H](NC(=O)CCCCCCCCCCCCCCCCCCC(=O)O)C(=O)O)NC(=O)[C@H](CC(C)C)NC(=O)[C@H](Cc1ccc(O)cc1)NC(=O)[C@H](CO)NC(=O)[C@@H](NC(=O)[C@H](CC(=O)O)NC(=O)[C@H](CO)NC(=O)[C@@H](NC(=O)[C@H](Cc1ccccc1)NC(=O)[C@@H](NC(=O)CNC(=O)[C@H](Cc1ccc(O)cc1)NC(=O)C(C)(C)NC(=O)[C@@H](N)Cc1c[nH]cn1)[C@@H](C)O)[C@@H](C)O)C(C)C)C(=O)N[C@@H](CCC(=O)O)C(=O)N[C@@H](Cc1c[nH]cn1)C(=O)N[C@@H](CC(C)C)C(=O)N[C@H](C(N)=O)C(C)C [compound 159] (H-H[Aib]YGTFTSDVSYLK([AEEA-AEEA-γGlu-C20 diacid])EEA[Aib]LQRFLEHLV-NH2),5426,,0.08,,,25100 nM,0.794 nM,34730,,
CC(C)C[C@H](NC(=O)[C@H](Cc1ccccc1)NC(=O)[C@H](CCCNC(=N)N)NC(=O)[C@H](CCC(N)=O)NC(=O)C(C)(C)NC(=O)[C@H](C)NC(=O)[C@H](C)NC(=O)[C@H](Cc1ccccc1)NC(=O)[C@H](CCC(=O)O)NC(=O)[C@H](CCCCNC(=O)COCCOCCNC(=O)COCCOCCNC(=O)CC[C@H](NC(=O)CCCCCCCCCCCCCCCCCCC(=O)O)C(=O)O)NC(=O)[C@H](CC(C)C)NC(=O)[C@H](Cc1ccccc1)NC(=O)[C@H](CO)NC(=O)[C@@H](NC(=O)[C@H](CC(=O)O)NC(=O)[C@H](CO)NC(=O)[C@@H](NC(=O)[C@H](Cc1ccccc1)NC(=O)[C@@H](NC(=O)CNC(=O)[C@H](CCC(=O)O)NC(=O)C(C)(C)NC(=O)[C@@H](N)Cc1c[nH]cn1)[C@@H](C)O)[C@@H](C)O)C(C)C)C(=O)N[C@@H](CCC(=O)O)C(=O)N[C@@H](Cc1c[nH]cn1)C(=O)N[C@@H](CC(C)C)C(=O)N[C@H](C(N)=O)C(C)C [compound 27] (H-H[Aib]EGTFTSDVSFLK([AEEA-AEEA-γGlu-C20 diacid])EFAA[Aib]QRFLEHLV-NH2),16757,3160 nM,0.09,33159,0.1 nM,,,,,
CC(C)C[C@H](NC(=O)[C@H](Cc1ccccc1)NC(=O)[C@H](CCCNC(=N)N)NC(=O)[C@H](CCC(N)=O)NC(=O)[C@@H](NC(=O)C(C)(C)NC(=O)[C@H](C)NC(=O)[C@H](CCC(=O)O)NC(=O)[C@H](CCC(=O)O)NC(=O)[C@H](CCCCNC(=O)COCCOCCNC(=O)COCCOCCNC(=O)CC[C@H](NC(=O)CCCCCCCCCCCCCCCCCCC(=O)O)C(=O)O)NC(=O)[C@H](CC(C)C)NC(=O)[C@H](Cc1ccc(O)cc1)NC(=O)[C@H](CO)NC(=O)[C@@H](NC(=O)[C@H](CC(=O)O)NC(=O)[C@H](CO)NC(=O)[C@@H](NC(=O)[C@H](Cc1ccccc1)NC(=O)[C@@H](NC(=O)CNC(=O)[C@H](CCC(=O)O)NC(=O)C(C)(C)NC(=O)[C@@H](N)Cc1c[nH]cn1)[C@@H](C)O)[C@@H](C)O)C(C)C)C(C)C)C(=O)N[C@@H](CCC(=O)O)C(=O)N[C@@H](Cc1c[nH]cn1)C(=O)N[C@@H](CC(C)C)C(=O)N[C@H](C(N)=O)C(C)C [compound 161] (H-H[Aib]EGTFTSDVSYLK([AEEA-AEEA-γGlu-C20 diacid])EEA[Aib]VQRFLEHLV-NH2),3973,,0.08,,,158 nM,0.00398 nM,42442,,
CC(C)C[C@H](NC(=O)[C@H](Cc1ccccc1)NC(=O)[C@H](CCCNC(=N)N)NC(=O)[C@H](CCC(N)=O)NC(=O)[C@H](CC(C)C)NC(=O)C(C)(C)NC(=O)[C@H](C)NC(=O)[C@H](CCC(=O)O)NC(=O)[C@H](CCC(=O)O)NC(=O)[C@H](CCCCNC(=O)COCCOCCNC(=O)COCCOCCNC(=O)CC[C@H](NC(=O)CCCCCCCCCCCCCCCCCCC(=O)O)C(=O)O)NC(=O)[C@H](CC(C)C)NC(=O)[C@H](Cc1ccc(O)cc1)NC(=O)[C@H](CO)NC(=O)[C@@H](NC(=O)[C@H](CC(=O)O)NC(=O)[C@H](CO)NC(=O)[C@@H](NC(=O)[C@H](Cc1ccccc1)NC(=O)[C@@H](NC(=O)CNC(=O)[C@H](CCC(=O)O)NC(=O)[C@H](C)NC(=O)[C@@H](N)Cc1c[nH]cn1)[C@@H](C)O)[C@@H](C)O)C(C)C)C(=O)N[C@@H](CCC(=O)O)C(=O)N[C@@H](Cc1c[nH]cn1)C(=O)N[C@@H](CC(C)C)C(=O)N[C@H](C(N)=O)C(C)C [compound 166] (H-HAEGTFTSDVSYLK([AEEA-AEEA-γGlu-C20 diacid])EEA[Aib]LQRFLEHLV-NH2),4253,,0.08,,,316 nM,0.00794 nM,41476,,
CC[C@H](C)[C@H](NC(=O)[C@H](Cc1ccccc1)NC(=O)[C@H](CCCNC(=N)N)NC(=O)[C@H](CCC(N)=O)NC(=O)[C@H](CC(C)C)NC(=O)[C@H](C)NC(=O)[C@H](C)NC(=O)CNC(=O)[C@H](CCC(=O)O)NC(=O)[C@H](CC(C)C)NC(=O)[C@H](CC(C)C)NC(=O)[C@H](CCCNC(=N)N)NC(=O)[C@H](CO)NC(=O)[C@@H]1CCCN1C(=O)[C@H](CC(=O)O)NC(=O)[C@H](CO)NC(=O)[C@@H](NC(=O)[C@H](Cc1ccccc1)NC(=O)[C@@H](NC(=O)CNC(=O)[C@H](CCC(=O)O)NC(=O)C(C)(C)NC(=O)[C@@H](N)Cc1c[nH]cn1)[C@@H](C)O)[C@@H](C)O)C(=O)N[C@@H](CCC(N)=O)C(=O)N[C@@H](Cc1c[nH]c2ccccc12)C(=O)N[C@@H](CC(C)C)C(=O)N[C@H](C(N)=O)C(C)C [compound 124] (H-H[Aib]EGTFTSDPSRLLEGAALQRFIQWLV-NH2),1370,,0.12,,,5010 nM,2.51 nM,2086,,
CC(C)C[C@H](NC(=O)[C@H](CCC(=O)O)NC(=O)[C@H](CCCCNC(=O)COCCOCCNC(=O)COCCOCCNC(=O)CC[C@H](NC(=O)CCCCCCCCCCCCCCCCCCC(=O)O)C(=O)O)NC(=O)[C@H](CC(C)C)NC(=O)[C@@H](NC(=O)[C@H](CO)NC(=O)[C@@H](NC(=O)[C@H](CC(=O)O)NC(=O)[C@H](CO)NC(=O)[C@@H](NC(=O)[C@H](Cc1ccccc1)NC(=O)[C@@H](NC(=O)CNC(=O)[C@H](CCC(=O)O)NC(=O)C(C)(C)NC(=O)[C@@H](N)Cc1c[nH]cn1)[C@@H](C)O)[C@@H](C)O)C(C)C)[C@@H](C)O)C(=O)N[C@@H](C)C(=O)N[C@@H](C)C(=O)N[C@@H](C)C(=O)N[C@@H](CCC(N)=O)C(=O)N[C@@H](CCCNC(=N)N)C(=O)N[C@@H](Cc1ccccc1)C(=O)N[C@@H](CC(C)C)C(=O)N[C@@H](CCC(=O)O)C(=O)N[C@@H](Cc1c[nH]cn1)C(=O)N[C@@H](CC(C)C)C(=O)N[C@H](C(N)=O)C(C)C [compound 11] (H-H[Aib]EGTFTSDVSTLK([AEEA-AEEA-γGlu-C20 diacid])ELAAAQRFLEHLV-NH2),7854,,0.08,11347,,,,,631 nM,0.0501 nM
